Laboratory results taken from patent US20130217678A1, “PHARMACEUTICAL AGENT COMPRISING QUINOLONE COMPOUND” (OTSUKA PHARMACEUTICAL CO., LTD., priority 2008, published 2013).

What was measured:
[1] = system: human neuroblastoma cell lines SH-SY5Y treated with 1-methyl-4-phenylpyridinium (MPP+); assay: Improvement of mitochondrial function (Alamar Blue mitochondrial oxidation reduction activity) in MPP+-treated SH-SY5Y cells; assay type: cell-based; settings: 1.5 mM MPP+, relative to cells in DMSO alone = 100%, read-out: Fluorescence Intensity (%); for activity at 0.01 µg/mL: compound 0.01 μg/ml; for activity at 0.03 µg/mL: compound 0.03 μg/ml; for activity at 0.1 µg/mL: compound 0.1 μg/ml; for activity at 0.3 µg/mL: compound 0.3 μg/ml; for activity at 1 µg/mL: compound 1 μg/ml
Protocol: In human neuroblastoma cell lines SH-SY5Y in which mitochondrial function was damaged by MPP^+ treatment (Bollimuntha S. et al., J Biol Chem, 280, 2132-2140 (2005) and Shang T. et al., J Biol Chem, 280, 34644-34653 (2005)), the improvement of mitochondrial function was evaluated on the basis of the measurement value for mitochondrial oxidation reduction activity using Alamar Blue fluorescent dye after the compound addition (Nakai M. et al, Exp Neurol, 179, 103-110 (2003)).
The human neuroblastoma cell lines SH-SY5Y were cultured in Dulbecco's Modified Eagle's Medium containing 10% fetal bovine serum (DMEM containing 50 units/ml penicillin and 50 μg/ml streptomycin as antibiotics) at 37° C. in the presence of 5% carbon dioxide. Cells were scattered on a poly-D-lysine-coated 96-well black plate at a concentration of 3−6×10^4 cells/cm^2 (medium amount: 100 μl/well) and cultured in the medium for two days. Further, the medium was changed to DMEM containing a 1% N2 supplement (N2-DMEM) or to a medium (100 μl/well) in which 1.5 mM MPP^+ was dissolved. The cells were cultured therein for 39 to 48 hours, and then subjected to a mitochondrial oxidation reduction activity measurement system. A sample compound that had been previously dissolved in dimethyl sulfoxide (DMSO) was diluted with N2-DMEM and added in a volume of 10 μl/well 24 hours before the activity measurement (final compound concentration: 0.01 to 1 μg/ml).
After removal of the medium by suction, a balanced salt solution containing 10% Alamar Blue (154 mM sodium chloride, 5.6 mM potassium chloride, 2.3 mM calcium chloride, 1.0 mM magnesium chloride, 3.6 mM sodium hydrogen carbonate, 5 mM glucose, 5 mM HEPES, pH 7.2) was added in a volume of 100 μl/well, and reacted in an incubator at 37° C. for 1 hour. The fluorescent intensity was detected using a fluorescence detector (a product of Hamamatsu Photonics K.K., excitation wavelength: 530 nm, measurement wavelength: 580 nm) to thereby measure the mitochondrial oxidation reduction activity.
The fluorescent intensity of the well of the cells cultured in a medium containing MPP^+ and each of the sample compounds was relatively evaluated based on the 100% fluorescent intensity of the well of the cells cultured in a medium containing DMSO alone (final concentration: 0.1%).

melting point | SMILES | activity at 0.01 µg/mL [1] [%] | activity at 0.03 µg/mL [1] [%] | activity at 0.1 µg/mL [1] [%] | activity at 0.3 µg/mL [1] [%] | activity at 1 µg/mL [1] [%]
214 to 215 °C | COc1ccc(-c2c[nH]c3c(N4CCN(C)CC4)ccc(C)c3c2=O)cc1 [Example 77, 3-(4-Methoxyphenyl)-5-methyl-8-(4-methylpiperazin-1-yl)-1H-quinolin-4-one] | – | – | – | – | –
179 to 180 °C | CCCOc1ccc(OC)c2c(=O)c(-c3cc(OC)ccc3OC)c[nH]c12 [Example 43, 3-(2,5-Dimethoxyphenyl)-5-methoxy-8-propoxy-1H-quinolin-4-one] | – | – | – | – | –
253 to 255 °C | CCCOc1cccc2c(=O)c(-c3cccc(OC)c3OC)c[nH]c12 [Example 41, 3-(2,3-Dimethoxyphenyl)-8-propoxy-1H-quinolin-4-one] | – | – | – | – | –
231 to 232 °C | CCCOc1cccc2c(=O)c(-c3ccc(OC)cc3OC)c[nH]c12 [Example 16, 3-(2,4-Dimethoxyphenyl)-8-propoxy-1H-quinolin-4-one] | – | – | – | – | –
193 °C | CCCOc1cccc2c(=O)c(-c3c(Cl)cccc3Cl)c[nH]c12 [Example 28, 3-(2,6-Dichlorophenyl)-8-propoxy-1H-quinolin-4-one] | – | – | – | – | –
270 to 275 °C (dec.) | Cc1ccc(O)c2[nH]cc(-c3ccc(O)cc3)c(=O)c12 [Example 75, 8-Hydroxy-3-(4-hydroxyphenyl)-5-methyl-1H-quinolin-4-one] | – | – | – | – | –
221 to 223 °C | CCCOc1ccc(C)c2c(=O)c(-c3ccccc3OC)c[nH]c12 [Example 52, 3-(2-Methoxyphenyl)-5-methyl-8-propoxy-1H-quinolin-4-one] | – | – | – | – | –
189 to 193 °C | CCCOc1cccc2c(=O)c(-c3cccc(-c4ccc(C)cc4)c3)c[nH]c12 [Example 59, 3-(4′-Methylbiphenyl-3-yl)-8-propoxy-1H-quinolin-4-one] | – | – | – | – | –
229 to 231 °C | COc1ccc(-c2c[nH]c3c(-c4cc5ccccc5s4)ccc(C)c3c2=O)cc1 [Example 98, 8-Benzo[b]thiophen-2-yl-3-(4-methoxyphenyl)-5-methyl-1H-quinolin-4-one] | – | – | – | – | –
214 to 215 °C | CCCOc1cccc2c(=O)c(-c3ccc(OC)cc3C)c[nH]c12 [Example 19, 3-(4-Methoxy-2-methylphenyl)-8-propoxy-1H-quinolin-4-one] | – | – | – | – | –
198 to 199 °C | COc1ccc(-c2c[nH]c3c(OCC4CC4)ccc(C)c3c2=O)c(F)c1 [Example 79, 8-Cyclopropylmethoxy-3-(2-fluoro-4-methoxyphenyl)-5-methyl-1H-quinolin-4-one] | – | – | – | – | –
212 to 214 °C | COc1ccc(-c2c[nH]c3c(OCC4CC4)ccc(OC)c3c2=O)cc1 [Example 88, 8-Cyclopropylmethoxy-5-methoxy-3-(4-methoxyphenyl)-1H-quinolin-4-one] | – | – | – | – | –
145 to 148 °C | CCCOc1ccc(OC)c2c(=O)c(-c3cccc(OC)c3OC)c[nH]c12 [Example 42, 3-(2,3-Dimethoxyphenyl)-5-methoxy-8-propoxy-1H-quinolin-4-one] | – | – | – | – | –
232 to 234 °C | CCOc1ccc(OCC)c2c(=O)c(-c3ccc(F)cc3)c[nH]c12 [Example 94, 5,8-Diethoxy-3-(4-fluorophenyl)-1H-quinolin-4-one] | – | – | – | – | –
218 to 220 °C | CCCOc1cccc2c(=O)c(-c3ccccc3OC)c[nH]c12 [Example 39, 3-(2-Methoxyphenyl)-8-propoxy-1H-quinolin-4-one] | – | – | – | – | –
265 to 267 °C | CCCOc1ccc(C)c2c(=O)c(-c3ccc(O)cc3)c[nH]c12 [Example 74, 3-(4-Hydroxyphenyl)-5-methyl-8-propoxy-1H-quinolin-4-one] | – | – | – | – | –
239 to 241 °C | CCCOc1ccc(OC)c2c(=O)c(-c3ccccc3OC)c[nH]c12 [Example 40, 5-Methoxy-3-(2-methoxyphenyl)-8-propoxy-1H-quinolin-4-one] | – | – | – | – | –
255 to 256 °C | CCCOc1cccc2c(=O)c(-c3cccc4ccccc34)c[nH]c12 | – | – | – | – | –
186 to 187 °C | CCCOc1ccc(-c2ccccc2)c2c(=O)c(-c3ccc(OC)cc3)c[nH]c12 [Example 22, 3-(4-Methoxyphenyl)-5-phenyl-8-propoxy-1H-quinolin-4-one] | – | – | – | – | –
260 to 263 °C | COc1ccc(-c2c[nH]c3c(N4CCOCC4)ccc(C)c3c2=O)cc1 [Example 73, 3-(4-Methoxyphenyl)-5-methyl-8-morpholin-4-yl-1H-quinolin-4-one] | – | – | – | – | –
106 to 109 °C | CCCOc1ccc(C)c2c(=O)c(-c3cn(C)c4ccccc34)c[nH]c12 [Example 62, 5-Methyl-3-(1-methyl-1H-indol-3-yl)-8-propoxy-1H-quinolin-4-one] | – | – | – | – | –

SMILES | melting point | activity at 0.01 µg/mL [1] [%] | activity at 0.03 µg/mL [1] [%] | activity at 0.1 µg/mL [1] [%] | activity at 0.3 µg/mL [1] [%] | activity at 1 µg/mL [1] [%]
COc1ccc(-c2c[nH]c3c(Br)ccc(C)c3c2=O)cc1 [Example 86, 8-Bromo-3-(4-methoxyphenyl)-5-methyl-1H-quinolin-4-one] | 185 to 186 °C | 60 | 65 | 65 | 65 | 52
CCCOc1ccc(C(F)(F)F)c2c(=O)c(-c3ccc(OC)cc3)c[nH]c12 [Example 24, 3-(4-Methoxyphenyl)-8-propoxy-5-trifluoromethyl-1H-quinolin-4-one] | 220 to 221 °C | 50 | 57 | 64 | 63 | 36
CCCOc1ccc(C)c2c(=O)c(-c3ccncc3)c[nH]c12 [Example 95, 5-Methyl-8-propoxy-3-pyridin-4-yl-1H-quinolin-4-one] | 112 to 113 °C | 51 | 56 | 57 | 61 | 47
COc1ccc(-c2c[nH]c3c(OCC4CC4)cc(C)c(C)c3c2=O)cc1 [Example 83, 8-Cyclopropylmethoxy-3-(4-methoxyphenyl)-5,6-dimethyl-1H-quinolin-4-one] | 99 to 101 °C | 65 | 70 | 67 | 62 | 29
CCCOc1c(C)cc(C)c2c(=O)c(-c3ccc(OC)cc3)c[nH]c12 [Example 23, 3-(4-Methoxyphenyl)-5,7-dimethyl-8-propoxy-1H-quinolin-4-one] | 174 to 175 °C | 51 | 63 | 67 | 68 | 59
CCCOc1cccc2c(=O)c(-c3ccc(OC)cc3)c[nH]c12 [Example 3, 3-(4-Methoxyphenyl)-8-propoxy-1H-quinolin-4-one] | 231 to 233 °C | 68 | 77 | 77 | 83 | 67
CCCOc1cccc2c(=O)c(-c3ccccc3C(F)(F)F)c[nH]c12 [Example 32, 8-Propoxy-3-(2-trofluoromethylphenyl)-1H-quinolin-4-one] | 224 °C | 49 | 53 | 54 | 57 | 61
CCCOc1ccc(OC)c2c(=O)c(-c3ccc(Cl)cc3Cl)c[nH]c12 [Example 38, 3-(2,4-Dichlorophenyl)-5-methoxy-8-propoxy-1H-quinolin-4-one] | 125 °C | 47 | 54 | 67 | 75 | 65
CCCOc1ccc(OC)c2c(=O)c(-c3ccc(OC)cc3OC)c[nH]c12 [Example 21, 3-(2,4-Dimethoxyphenyl)-5-methoxy-8-propoxy-1H-quinolin-4-one] | 113 to 114 °C | 65 | 68 | 77 | 82 | 84
CCCOc1ccc(C)c2c(=O)c(-c3ccc(OC)cc3OC)c[nH]c12 [Example 20, 3-(2,4-Dimethoxyphenyl)-5-methyl-8-propoxy-1H-quinolin-4-one] | 193 to 194 °C | 65 | 67 | 74 | 78 | 77
